Common to all, as to format: biochemical
Assay [1] concerns the target Jak2 (a.a. 828-1132) (Homo sapiens (Human), UniProt O60674). In words: In vitro JAK kinase assay (HTRF, phosphorylation of a biotinylated peptide), JAK2. The settings on record: measured at 1 mM ATP. The method in brief: (§1)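 N-terminal His-tagged catalytic domains, baculovirus-expressed in insect cells, phosphorylated a biotinylated peptide for 1 hr at room temperature. EDTA stop was followed by SA-APC and Eu-Py20 antibody for 40 minutes, with phosphopeptide read by HTRF.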
In general terms: In TR-FRET formats the signal depends on donor and acceptor labels being close together.

Assay [2] concerns the target human JAK1 (a.a. 837-1142). As to the kind of experiment: In vitro JAK kinase assay (HTRF, phosphorylation of a biotinylated peptide), JAK1. The conditions noted are these: ratio of JAK2 IC50 to JAK1 IC50, measured at 1 mM ATP. The essentials:
as §1

In assay [3] the target is human JAK1 (a.a. 837-1142) (Homo sapiens, UniProt P23458). The assay is described as above. The settings on record: measured at 1 mM ATP. The method in brief:
as §1

Here are results for 21 compounds from patent publication US9999619B2, “Piperidin-4-yl azetidine derivatives as JAK1 inhibitors” (Incyte Corporation, priority 2010, dated 2018).

Jak2 (a.a. 828-1132), sequence (O60674 828-1132): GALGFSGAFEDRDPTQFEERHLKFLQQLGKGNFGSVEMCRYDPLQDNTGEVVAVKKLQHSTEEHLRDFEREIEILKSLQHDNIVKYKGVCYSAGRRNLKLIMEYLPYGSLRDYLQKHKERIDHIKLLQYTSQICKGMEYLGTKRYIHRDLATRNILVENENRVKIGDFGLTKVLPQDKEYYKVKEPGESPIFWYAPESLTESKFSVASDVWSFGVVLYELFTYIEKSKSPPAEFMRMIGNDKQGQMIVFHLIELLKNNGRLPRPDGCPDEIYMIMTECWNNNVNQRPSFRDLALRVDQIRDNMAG

With `COc1cc(F)ccc1C(=O)N1CCC(N2CC(CC#N)(n3cc(-c4ncnc5[nH]ccc45)cn3)C2)CC1` [Example 40, {1-[1-(4-fluoro-2-methoxybenzoyl)piperidin-4-yl]-3-[4-(7H-pyrrolo[2,3-d]pyrimidin-4-yl)-1H-pyrazol-1-yl]azetidin-3-yl}acetonitrile], the IC50 (in general, the concentration at which inhibition is half-maximal) is at most 10 nM in assay [1] and at most 5 nM in assay [3]. Besides, the “IC50 Ratio JAK2/JAK1” value in assay [2] was found to be 4.8.

For `N#CCC1(n2cc(-c3ncnc4[nH]ccc34)cn2)CN(C2CCN(C(=O)c3cccc(F)c3F)CC2)C1` [Example 41, {1-[1-(2,3-difluorobenzoyl)piperidin-4-yl]-3-[4-(7H-pyrrolo[2,3-d]pyrimidin-4-yl)-1H-pyrazol-1-yl]azetidin-3-yl}acetonitrile], the results for the half-inhibitory concentration (IC50) in assay [1] and in assay [3] were at most 10 nM and at most 5 nM, respectively. Moreover, the “IC50 Ratio JAK2/JAK1” value in assay [2] was 4.9.

Take `N#CCC1(n2cc(-c3ncnc4[nH]ccc34)cn2)CN(C2CCN(C(=O)c3ccc(F)cc3F)CC2)C1` [Example 42, {1-[1-(2,4-difluorobenzoyl)piperidin-4-yl]-3-[4-(7H-pyrrolo[2,3-d]pyrimidin-4-yl)-1H-pyrazol-1-yl]azetidin-3-yl}acetonitrile]: the IC50 in assay [1] was at most 10 nM; in assay [3] it was at most 5 nM. Moreover, the “IC50 Ratio JAK2/JAK1” value in assay [2] turned out to be 6.7.

As for `N#CCC1(n2cc(-c3ncnc4[nH]ccc34)cn2)CN(C2CCN(C(=O)c3cc(F)ccc3F)CC2)C1` [Example 43, {1-[1-(2,5-difluorobenzoyl)piperidin-4-yl]-3-[4-(7H-pyrrolo[2,3-d]pyrimidin-4-yl)-1H-pyrazol-1-yl]azetidin-3-yl}acetonitrile], the concentration for half-maximal inhibition (IC50) was 10 to 50 nM in assay [1] and at most 5 nM in assay [3]. The “IC50 Ratio JAK2/JAK1” value in assay [2] came out at 5.0.

With `N#CCC1(n2cc(-c3ncnc4[nH]ccc34)cn2)CN(C2CCN(C(=O)c3c(F)cccc3F)CC2)C1` [Example 44, {1-[1-(2,6-difluorobenzoyl)piperidin-4-yl]-3-[4-(7H-pyrrolo[2,3-d]pyrimidin-4-yl)-1H-pyrazol-1-yl]azetidin-3-yl}acetonitrile], the IC50 was at most 10 nM in assay [1] and at most 5 nM in assay [3]. For the same compound, the “IC50 Ratio JAK2/JAK1” value in assay [2] was found to be 2.9.

In the case of `N#CCC1(n2cc(-c3ncnc4[nH]ccc34)cn2)CN(C2CCN(C(=O)c3c(F)cccc3C(F)(F)F)CC2)C1` [Example 45, {1-{1-[2-fluoro-6-(trifluoromethyl)benzoyl]piperidin-4-yl}-3-[4-(7H-pyrrolo[2,3-d]pyrimidin-4-yl)-1H-pyrazol-1-yl]azetidin-3-yl}acetonitrile], the figures for the IC50 in assay [1] and in assay [3] were 10 to 50 nM and at most 5 nM, respectively. In assay [2], the “IC50 Ratio JAK2/JAK1” value is 3.1.

Regarding `N#CCC1(n2cc(-c3ncnc4[nH]ccc34)cn2)CN(C2CCN(C(=O)c3ccc(F)c(F)c3F)CC2)C1` [Example 46, {3-[4-(7H-pyrrolo[2,3-d]pyrimidin-4-yl)-1H-pyrazol-1-yl]-1-[1-(2,3,4-trifluorobenzoyl)piperidin-4-yl]azetidin-3-yl}acetonitrile], the results for the IC50 in assay [1] and in assay [3] were 10 to 50 nM and at most 5 nM, respectively. The “IC50 Ratio JAK2/JAK1” value in assay [2] is 6.3.

Take `N#CCC1(n2cc(-c3ncnc4[nH]ccc34)cn2)CN(C2CCN(C(=O)c3c(F)ccc(F)c3F)CC2)C1` [Example 47, {3-[4-(7H-pyrrolo[2,3-d]pyrimidin-4-yl)-1H-pyrazol-1-yl]-1-[1-(2,3,6-trifluorobenzoyl)piperidin-4-yl]azetidin-3-yl}acetonitrile]: the IC50 in assay [1] is at most 10 nM; in assay [3], at most 5 nM. Moreover, the “IC50 Ratio JAK2/JAK1” value in assay [2] is given as 3.7.

On to `N#CCC1(n2cc(-c3ncnc4[nH]ccc34)cn2)CN(C2CCN(C(=O)c3cc(F)c(F)cc3F)CC2)C1` [Example 48, {3-[4-(7H-pyrrolo[2,3-d]pyrimidin-4-yl)-1H-pyrazol-1-yl]-1-[1-(2,4,5-trifluorobenzoyl)piperidin-4-yl]azetidin-3-yl}acetonitrile], for which the concentration for half-maximal inhibition (IC50) in assay [1] was 10 to 50 nM; in assay [3], at most 5 nM. The “IC50 Ratio JAK2/JAK1” value in assay [2] is recorded as 6.5.

On to `N#CCC1(n2cc(-c3ncnc4[nH]ccc34)cn2)CN(C2CCN(C(=O)c3c(F)cc(F)cc3F)CC2)C1` [Example 49, {3-[4-(7H-pyrrolo[2,3-d]pyrimidin-4-yl)-1H-pyrazol-1-yl]-1-[1-(2,4,6-trifluorobenzoyl)piperidin-4-yl]azetidin-3-yl}acetonitrile], for which the IC50 was at most 10 nM in assay [1] and at most 5 nM in assay [3]. In addition, in assay [2], the “IC50 Ratio JAK2/JAK1” value amounted to 6.5.

Take `COc1c(Br)cc(C(=O)N2CCC(N3CC(CC#N)(n4cc(-c5ncnc6[nH]ccc56)cn4)C3)CC2)cc1Br` [Example 50, {1-[1-(3,5-dibromo-4-methoxybenzoyl)piperidin-4-yl]-3-[4-(7H-pyrrolo[2,3-d]pyrimidin-4-yl)-1H-pyrazol-1-yl]azetidin-3-yl}acetonitrile]: the IC50 was at most 10 nM in assay [1] and at most 5 nM in assay [3]. Moreover, in assay [2], the “IC50 Ratio JAK2/JAK1” value worked out at 6.9.

Regarding `CN(C)c1ccc(C(=O)N2CCC(N3CC(CC#N)(n4cc(-c5ncnc6[nH]ccc56)cn4)C3)CC2)c(F)c1C#N` [Example 51, 3-[(4-{3-(cyanomethyl)-3-[4-(7H-pyrrolo[2,3-d]pyrimidin-4-yl)-1H-pyrazol-1-yl]azetidin-1-yl}piperidin-1yl)carbonyl]-6-(dimethylamino)-2-fluorobenzonitrile], the IC50 in assay [1] was at most 10 nM; in assay [3], at most 5 nM. In addition, in assay [2], the “IC50 Ratio JAK2/JAK1” value was 6.3.

For `N#CCC1(n2cc(-c3ncnc4[nH]ccc34)cn2)CN(C2CCN(C(=O)c3ccc(C(F)(F)F)c(F)c3)CC2)C1` [Example 52, {1-{1-[3-fluoro-4-(trifluoromethyl)benzoyl]piperidin-4-yl}-3-[4-(7H-pyrrolo[2,3-d]pyrimidin-4-yl)-1H-pyrazol-1-yl]azetidin-3-yl}acetonitrile], the IC50 is 50 to 100 nM in assay [1] and 5 to 20 nM in assay [3]. The “IC50 Ratio JAK2/JAK1” value in assay [2] worked out at 4.4.

Regarding `N#CCC1(n2cc(-c3ncnc4[nH]ccc34)cn2)CN(C2CCN(C(=O)c3cc(Cl)cc(C(F)(F)F)n3)CC2)C1` [Example 53, {1-(1-{[4-chloro-6-(trifluoromethyl)pyridin-2-yl]carbonyl}piperidin-4-yl)-3-[4-(7H-pyrrolo[2,3-d]pyrimidin-4-yl)-1H-pyrazol-1-yl]azetidin-3-yl}acetonitrile], the values for the IC50 in assay [1] and in assay [3] were 10 to 50 nM and at most 5 nM, respectively. Besides, the “IC50 Ratio JAK2/JAK1” value in assay [2] was 9.4.

Consider `N#CCC1(n2cc(-c3ncnc4[nH]ccc34)cn2)CN(C2CCN(C(=O)c3cc(F)c(F)c(F)c3F)CC2)C1` [Example 54, {3-[4-(7H-pyrrolo[2,3-d]pyrimidin-4-yl)-1H-pyrazol-1-yl]-1-[1-(2,3,4,5-tetrafluorobenzoyl)piperidin-4-yl]azetidin-3-yl}acetonitrile], for which the IC50 in assay [1] was in the range of 50 to 100 nM; in assay [3], 5 to 20 nM. Further, the “IC50 Ratio JAK2/JAK1” value in assay [2] was 9.1.

Turning to `COc1ccc(C(=O)N2CCC(N3CC(CC#N)(n4cc(-c5ncnc6[nH]ccc56)cn4)C3)CC2)cc1C#N` [Example 55, 5-[(4-{3-(cyanomethyl)-3-[4-(7H-pyrrolo[2,3-d]pyrimidin-4-yl)-1H-pyrazol-1-yl]azetidin-1-yl}piperidin-1-yl)carbonyl]-2-methoxybenzonitrile], the IC50 in assay [1] was 10 to 50 nM; in assay [3], at most 5 nM. Further, the “IC50 Ratio JAK2/JAK1” value in assay [2] came to 7.5.

For `N#CCC1(n2cc(-c3ncnc4[nH]ccc34)cn2)CN(C2CCN(C(=O)c3c(F)c(F)cc(F)c3F)CC2)C1` [Example 56, {3-[4-(7H-pyrrolo[2,3-d]pyrimidin-4-yl)-1H-pyrazol-1-yl]-1-[1-(2,3,5,6-tetrafluorobenzoyl)piperidin-4-yl]azetidin-3-yl}acetonitrile], the IC50 in assay [1] is at most 10 nM; in assay [3], at most 5 nM. Moreover, the “IC50 Ratio JAK2/JAK1” value in assay [2] stood at 8.8.

With `N#CCC1(n2cc(-c3ncnc4[nH]ccc34)cn2)CN(C2CCN(C(=O)c3ccnc(C(F)(F)F)c3)CC2)C1` [Example 57, (3-[4-(7H-pyrrolo[2,3-d]pyrimidin-4-yl)-1H-pyrazol-1-yl]-1-{1-[2-(trifluoromethyl)isonicotinoyl]piperidin-4-yl}azetidin-3-yl)acetonitrile], the IC50 in assay [1] was over 100 nM; in assay [3] it was over 30 nM. Besides, the “IC50 Ratio JAK2/JAK1” value in assay [2] was 3.3.

`N#CCC1(n2cc(-c3ncnc4[nH]ccc34)cn2)CN(C2CCN(C(=O)c3ccc(F)c(O)c3)CC2)C1` [Example 58, {1-[1-(4-fluoro-3-hydroxybenzoyl)piperidin-4-yl]-3-[4-(7H-pyrrolo[2,3-d]pyrimidin-4-yl)-1H-pyrazol-1-yl]azetidin-3-yl}acetonitrile]: the values for the half-maximal inhibitory concentration (IC50) in assay [1] and in assay [3] were 10 to 50 nM and at most 5 nM, respectively. The “IC50 Ratio JAK2/JAK1” value in assay [2] is given as 5.0.

For the compound `CN(C)c1ccc(C(=O)N2CCC(N3CC(CC#N)(n4cc(-c5ncnc6[nH]ccc56)cn4)C3)CC2)cc1C#N` [Example 59, 5-[(4-{3-(cyanomethyl)-3-[4-(7H-pyrrolo[2,3-d]pyrimidin-4-yl)-1H-pyrazol-1-yl]azetidin-1-yl}piperidin-1yl)carbonyl]-2-(dimethylamino)benzonitrile], the results for the IC50 in assay [1] and in assay [3] were at most 10 nM and at most 5 nM, respectively. The “IC50 Ratio JAK2/JAK1” value in assay [2] was found to be 4.6.

With `CN(C)c1c(F)c(F)c(C(=O)N2CCC(N3CC(CC#N)(n4cc(-c5ncnc6[nH]ccc56)cn4)C3)CC2)c(F)c1F` [Example 60, {1-{1-[4-(dimethylamino)-2,3,5,6-tetrafluorobenzoyl]piperidin-4-yl}-3-[4-(7H-pyrrolo[2,3-d]pyrimidin-4-yl)-1H-pyrazol-1-yl]azetidin-3-yl}acetonitrile], the results for the IC50 in assay [1] and in assay [3] were at most 10 nM and at most 5 nM, respectively. The “IC50 Ratio JAK2/JAK1” value in assay [2] was determined as 1.8.
